Results as given in ChEMBL document CHEMBL1158859, “Antiprotozoal compounds from Asparagus africanus” (J Nat Prod, 1997).

Tests used:
[1] = test system: Leishmania major; experiment: Antileishmanial activity against Leishmania major promastigotes assessed as inhibition of [3H]thymidine uptake after 18 hrs by scintillation counting; assay type: functional, organism-based
[2] = test system: Plasmodium falciparum; experiment: Antiplasmodial activity against chloroquine-sensitive Plasmodium falciparum K39 after 48 hrs by [3H]hypoxanthine uptake; assay type: functional, organism-based
[3] = test system: Plasmodium falciparum; experiment: Antiplasmodial activity against chloroquine-resistant Plasmodium falciparum V1/S after 48 hrs by [3H]hypoxanthine uptake; assay type: functional, organism-based
[4] = test system: Plasmodium falciparum; experiment: Antiplasmodial activity against chloroquine-susceptible Plasmodium falciparum 3D7 after 24 hrs by [3H]hypoxanthine uptake; assay type: functional, organism-based
[5] = test system: Plasmodium falciparum; experiment: Antiplasmodial activity against Plasmodium falciparum schizonts assessed as [3H]hypoxanthine incorporation by liquid scintillation counting; assay type: functional, organism-based; conditions: Dd2
[6] = Inhibition of phytohemagglutininin A-induced human lymphocyte proliferation assessed as radiolabeled [14C]thymidine uptake; assay type: cell-based
[7] = Selectivity index, ratio of IC50 for human lymphocyte to IC50 for Leishmania major
[8] = Selectivity index, ratio of IC50 for human lymphocyte to IC50 for chloroquine-susceptible Plasmodium falciparum K39
[9] = Selectivity index, ratio of IC50 for human lymphocyte to IC50 for chloroquine-resistant Plasmodium falciparum V1/S
[10] = Selectivity index, ratio of IC50 for human lymphocyte to IC50 for chloroquine-susceptible Plasmodium falciparum 3D7
[11] = Selectivity index, ratio of IC50 for human lymphocyte to IC50 for chloroquine-resistant Plasmodium falciparum Dd2
[12] = test system: Plasmodium falciparum; experiment: Antiplasmodial activity against chloroquine-resistant Plasmodium falciparum Dd2 after 24 hrs by [3H]hypoxanthine uptake; assay type: functional, organism-based

Row | SMILES | Activity [1] | IC50 [1] | Activity [2] | IC50 [2] | Activity [3] | IC50 [3] | Activity [4] | IC50 [4] | Activity [5] | IC50 [5] | IC50 [6] | Ratio IC50 [7] | Ratio IC50 [8] | Ratio IC50 [9] | Ratio IC50 [10] | Ratio IC50 [11] | IC50 [12]
1 | C[C@@H]1CC[C@@]2(OC1)O[C@H]1C[C@H]3C4=CCC5=CC(=O)[C@@H](O)C[C@]5(C)[C@H]4C[C@H](O)[C@]3(C)[C@H]1[C@@H]2C [MUZANZAGENIN] | Dose-dependent effect | 70 µM | Dose-dependent effect | 61 µM | Dose-dependent effect | 163 µM | Dose-dependent effect | 23 µM | Dose-dependent effect | 16 µM | 129 µM | 1.8 | 2.1 | 0.8 | 5.6 | 8 | 
2 | C=C[C@H](/C=C\c1ccc(O)cc1)c1ccc(O)cc1 [NYASOL] |  | 12 µM |  |  |  |  |  | 12 µM |  | 12 µM | 200 µM | 4.1 |  |  | 16.7 | 16.7 | 49 µM
